Measurements: patent US6458978B1, “Fluorous phosphines and process for their preparation” (Atofina Vlissingen B.V., priority 1998, dated 2002)

Legend:
[1] = Solubility of dppe and dppe derivatives G{m,x} in perfluorinated and non-fluorinated solvents; format: physicochemical; details: for solubility at room temperature, FC-72: FC-72: mixture of perfluorinated hexanes
[2] = Determination of partition coefficients of phosphines in fluorous biphasic systems (ICP-AAS on phosphorus); format: physicochemical; details: 0° C., 1:1 mixture (v/v)
Excerpt: For applications in fluorous bi-phasic catalysis and for catalyst recycling by fluorous phase extraction techniques an important feature of the fluorous aryl phosphines and the derived catalytic complexes is the partition coefficient P(P=Cfluorous phase/Corganic phase. C=concentration) in fluorous bi-phasic systems.
11. Determination of Partition Coefficients
The partition coefficients were determinded by dissolving a known amount of phosphine (typically between 11 and 60 μmol) in a fluorous biphasic system either consisting of c-C6F11CF3 (2.000±0.002 mL) and n-pentane, n-octane or toluene (2.006±0.002 mL). The resulting mixture was stirred at 25° C. until all solid had dissolved and equilibrated in a water ice bath (1 h). An aliquot (0.500±0.002 mL) was removed from each layer by syringe. Analysis by ICP-AAS on phosphorus gave the amount of phosphine present, with an accuracy of ±0.3 ppm. A conservative estimate of the experimental error in the partition coefficient is ±1 in the last digit.

[3] = Hydrogenation of 1-octene under single phase conditions in α,α,α-trifluorotoluene
Description: To be able to directly compare the activities of fluorous derivatives H{1,6} and H{1,8} with non-fluorous [P(C6H4-4-SiMe3)3]3RhCl (H{0}) and the conventional Wilkinson catalyst (PPh3)3RhCl, homogeneous hydrogenation of 1-octene were carried out under single phase conditions in the hybrid solvent α,α,α-trifluorotoluene at atmospheric H2 pressures. Highest rates of hydrogen uptake (14.2 mol.L^−1.h^−1) were measured for 1c at relatively high rhodium and olefine concentrations (entry 2, Table 7). Under these conditions a zero-order dependence in [1-octene] was found up to ca 80% conversion resulting in a linear conversion versus time plot. In all other experiments ([Rh]=4.0-8.0 mM, [1-octene]0=1.46 M) rates of hydrogen uptake were lower (<11 mol.L^−1.h^−1) and conversion versus time plots corresponded to a rate law -d[1-octene]/dt=kobs.[1-octene] for >98% conversion allowing to evaluate catalyst activity in terms of the observed first order rate constant kobs. Since for these experiments the rates of dihydrogen uptake were well below the maximum value obtained in entry 2, diffusion limitation of H2 can be excluded. In addition to kobs, turn over frequencies (TOF in mol.mol^−1.h^−1) were derived from the tangent of a 4^thorder polynomal fit to conversion versus time plots at 25% conversion and serve as a measure of catalyst activity independent of any assumed kinetic relationship with substrate.
Catalytic reactions were carried out under single phase conditions in CF3C6H5 at 80° C. under 1 bar of hydrogen pressure. After >90% conversion (monitored by the H2 uptake) volatiles were distilled off and analyzed by GC. Activities (TOF) were determined for 25% conversion.

[4] = [Rh] 4.0 mM, [1-octene] 1.46 M, T = 80° C., p(H2) = 1 bar, α,α,α-trifluorotoluene
[5] = [Rh] 8.0 mM, [1-octene] 2.92 M, T = 80° C., p(H2) = 1 bar, α,α,α-trifluorotoluene

SMILES | Fluorous partition coefficient P = cfluorous phase/corganic phase, toluene/c-C6F11CF3 [2] | Fluorous partition coefficient P = cfluorous phase/corganic phase, n-octane/c-C6F11CF3 [2] | Fluorous partition coefficient P = cfluorous phase/corganic phase, n-pentane/c-C6F11CF3 [2] | further results
C[Si](C)(CCC(F)(F)C(F)(F)C(F)(F)C(F)(F)C(F)(F)C(F)(F)F)c1ccc(P(CCP(c2ccc([Si](C)(C)CCC(F)(F)C(F)(F)C(F)(F)C(F)(F)C(F)(F)C(F)(F)F)cc2)c2ccc([Si](C)(C)CCC(F)(F)C(F)(F)C(F)(F)C(F)(F)C(F)(F)C(F)(F)F)cc2)c2ccc([Si](C)(C)CCC(F)(F)C(F)(F)C(F)(F)C(F)(F)C(F)(F)C(F)(F)F)cc2)cc1 [G{1,6}] |  |  |  | solubility at room temperature, THF [1]: + (+: >0.1 g/ml); solubility at room temperature, toluene [1]: + (+: >0.1 g/ml); solubility at room temperature, FC-72 [1]: − (−: <0.01 g/ml)
C[Si](C)(C)c1ccc(P(c2ccc([Si](C)(C)C)cc2)c2ccc([Si](C)(C)C)cc2)cc1 [D{0}, P(C6H4SiMe3-4)3, reference compound] | 0.007 |  |  | 
C[Si](C)(CCC(F)(F)C(F)(F)C(F)(F)C(F)(F)C(F)(F)C(F)(F)C(F)(F)C(F)(F)F)c1ccc(P(c2ccc([Si](C)(C)CCC(F)(F)C(F)(F)C(F)(F)C(F)(F)C(F)(F)C(F)(F)C(F)(F)C(F)(F)F)cc2)c2ccc([Si](C)(C)CCC(F)(F)C(F)(F)C(F)(F)C(F)(F)C(F)(F)C(F)(F)C(F)(F)C(F)(F)F)cc2)cc1 [D{1,8}] | 1.06 | 1.4 | 0.78 | 
FC(F)(F)C(F)(F)C(F)(F)C(F)(F)C(F)(F)C(F)(F)CC[Si](CCC(F)(F)C(F)(F)C(F)(F)C(F)(F)C(F)(F)C(F)(F)F)(CCC(F)(F)C(F)(F)C(F)(F)C(F)(F)C(F)(F)C(F)(F)F)c1ccc(P(CCP(c2ccc([Si](CCC(F)(F)C(F)(F)C(F)(F)C(F)(F)C(F)(F)C(F)(F)F)(CCC(F)(F)C(F)(F)C(F)(F)C(F)(F)C(F)(F)C(F)(F)F)CCC(F)(F)C(F)(F)C(F)(F)C(F)(F)C(F)(F)C(F)(F)F)cc2)c2ccc([Si](CCC(F)(F)C(F)(F)C(F)(F)C(F)(F)C(F)(F)C(F)(F)F)(CCC(F)(F)C(F)(F)C(F)(F)C(F)(F)C(F)(F)C(F)(F)F)CCC(F)(F)C(F)(F)C(F)(F)C(F)(F)C(F)(F)C(F)(F)F)cc2)c2ccc([Si](CCC(F)(F)C(F)(F)C(F)(F)C(F)(F)C(F)(F)C(F)(F)F)(CCC(F)(F)C(F)(F)C(F)(F)C(F)(F)C(F)(F)C(F)(F)F)CCC(F)(F)C(F)(F)C(F)(F)C(F)(F)C(F)(F)C(F)(F)F)cc2)cc1 [G{3,6}] |  |  |  | solubility at room temperature, THF [1]: − (−: <0.01 g/ml); solubility at room temperature, toluene [1]: − (−: <0.01 g/ml); solubility at room temperature, FC-72 [1]: + (+: >0.1 g/ml)
C[Si](CCC(F)(F)C(F)(F)C(F)(F)C(F)(F)C(F)(F)C(F)(F)C(F)(F)C(F)(F)F)(CCC(F)(F)C(F)(F)C(F)(F)C(F)(F)C(F)(F)C(F)(F)C(F)(F)C(F)(F)F)c1ccc(P(c2ccc([Si](C)(CCC(F)(F)C(F)(F)C(F)(F)C(F)(F)C(F)(F)C(F)(F)C(F)(F)C(F)(F)F)CCC(F)(F)C(F)(F)C(F)(F)C(F)(F)C(F)(F)C(F)(F)C(F)(F)C(F)(F)F)cc2)c2ccc([Si](C)(CCC(F)(F)C(F)(F)C(F)(F)C(F)(F)C(F)(F)C(F)(F)C(F)(F)C(F)(F)F)CCC(F)(F)C(F)(F)C(F)(F)C(F)(F)C(F)(F)C(F)(F)C(F)(F)C(F)(F)F)cc2)cc1 [D{2,8}] | 3.8 | 11 | 3.3 | 
C[Si](CCC(F)(F)C(F)(F)C(F)(F)C(F)(F)C(F)(F)C(F)(F)F)(CCC(F)(F)C(F)(F)C(F)(F)C(F)(F)C(F)(F)C(F)(F)F)c1ccc(P(c2ccc([Si](C)(CCC(F)(F)C(F)(F)C(F)(F)C(F)(F)C(F)(F)C(F)(F)F)CCC(F)(F)C(F)(F)C(F)(F)C(F)(F)C(F)(F)C(F)(F)F)cc2)c2ccc([Si](C)(CCC(F)(F)C(F)(F)C(F)(F)C(F)(F)C(F)(F)C(F)(F)F)CCC(F)(F)C(F)(F)C(F)(F)C(F)(F)C(F)(F)C(F)(F)F)cc2)cc1 [D{2,6}, P[C6H4Si(CH2CH2C6F13)2Me-4]3] | 3.8 | 6.6 | 2.0 | 
C[Si](C)(CCC(F)(F)C(F)(F)C(F)(F)C(F)(F)C(F)(F)C(F)(F)F)c1ccc(P(c2ccc([Si](C)(C)CCC(F)(F)C(F)(F)C(F)(F)C(F)(F)C(F)(F)C(F)(F)F)cc2)c2ccc([Si](C)(C)CCC(F)(F)C(F)(F)C(F)(F)C(F)(F)C(F)(F)C(F)(F)F)cc2)cc1 [D{1,6}] | 0.13 | 0.42 | 0.53 | 
C[Si](C)(C)c1ccc([PH](c2ccc([Si](C)(C)C)cc2)(c2ccc([Si](C)(C)C)cc2)[Rh]([Cl])([PH](c2ccc([Si](C)(C)C)cc2)(c2ccc([Si](C)(C)C)cc2)c2ccc([Si](C)(C)C)cc2)[PH](c2ccc([Si](C)(C)C)cc2)(c2ccc([Si](C)(C)C)cc2)c2ccc([Si](C)(C)C)cc2)cc1 [H{0}, [P(C6H4-4-SiMe3)3]3RhCl] |  |  |  | TOF(25%), turn over frequency at 25% conversion [3, 4]: 1610 h⁻¹; TON (mole of olefin/mole of Rh) [3, 4]: 336; conversion [3, 4]: 92%; kobs (first order rate constant) [3, 4]: 7.5(2) h^−1; TOF(25%), turn over frequency at 25% conversion [3, 5]: 1910 h⁻¹; TON (mole of olefin/mole of Rh) [3, 5]: 361; conversion [3, 5]: 99%; kobs (zero order in olefin up to 80% conversion) [3, 5]: ^eZero order in olefin up to 80% conversion, kobs = 14.2(1) mol.L^−1.h^−1.; activity relative to Wilkinson's catalyst ([3]; derived from Table 7): > 1.5 times; Highest rate of hydrogen uptake ([3]; relatively high rhodium and olefine concentrations (entry 2, Table 7)): 14.2 mol/L/h
FC(F)(F)C(F)(F)C(F)(F)C(F)(F)C(F)(F)C(F)(F)C(F)(F)C(F)(F)CC[Si](CCC(F)(F)C(F)(F)C(F)(F)C(F)(F)C(F)(F)C(F)(F)C(F)(F)C(F)(F)F)(CCC(F)(F)C(F)(F)C(F)(F)C(F)(F)C(F)(F)C(F)(F)C(F)(F)C(F)(F)F)c1ccc(P(c2ccc([Si](CCC(F)(F)C(F)(F)C(F)(F)C(F)(F)C(F)(F)C(F)(F)C(F)(F)C(F)(F)F)(CCC(F)(F)C(F)(F)C(F)(F)C(F)(F)C(F)(F)C(F)(F)C(F)(F)C(F)(F)F)CCC(F)(F)C(F)(F)C(F)(F)C(F)(F)C(F)(F)C(F)(F)C(F)(F)C(F)(F)F)cc2)c2ccc([Si](CCC(F)(F)C(F)(F)C(F)(F)C(F)(F)C(F)(F)C(F)(F)C(F)(F)C(F)(F)F)(CCC(F)(F)C(F)(F)C(F)(F)C(F)(F)C(F)(F)C(F)(F)C(F)(F)C(F)(F)F)CCC(F)(F)C(F)(F)C(F)(F)C(F)(F)C(F)(F)C(F)(F)C(F)(F)C(F)(F)F)cc2)cc1 [D{3,8}] | 1.0 | 4.8 | 7.0 | 
FC(F)(F)C(F)(F)C(F)(F)C(F)(F)C(F)(F)C(F)(F)CC[Si](CCC(F)(F)C(F)(F)C(F)(F)C(F)(F)C(F)(F)C(F)(F)F)(CCC(F)(F)C(F)(F)C(F)(F)C(F)(F)C(F)(F)C(F)(F)F)c1ccc(P(c2ccc([Si](CCC(F)(F)C(F)(F)C(F)(F)C(F)(F)C(F)(F)C(F)(F)F)(CCC(F)(F)C(F)(F)C(F)(F)C(F)(F)C(F)(F)C(F)(F)F)CCC(F)(F)C(F)(F)C(F)(F)C(F)(F)C(F)(F)C(F)(F)F)cc2)c2ccc([Si](CCC(F)(F)C(F)(F)C(F)(F)C(F)(F)C(F)(F)C(F)(F)F)(CCC(F)(F)C(F)(F)C(F)(F)C(F)(F)C(F)(F)C(F)(F)F)CCC(F)(F)C(F)(F)C(F)(F)C(F)(F)C(F)(F)C(F)(F)F)cc2)cc1 [D{3,6}] | 2.1 | 3.7 | 5.3 | 
